Laboratory results as given in ChEMBL document CHEMBL5465560, “Selectivity Literature for EUbOPEN Chemogenomic Library” (2024).

Columns and labels:
[1] = biological target: T1, Bone morphogenetic protein receptor type-2 (Homo sapiens) (UniProt Q13873); assay: Selectivity interaction (KinomeScan (DiscoverX)) EUB0000666a BMPR2; details: at 10 µM
T1 sequence (whole entry): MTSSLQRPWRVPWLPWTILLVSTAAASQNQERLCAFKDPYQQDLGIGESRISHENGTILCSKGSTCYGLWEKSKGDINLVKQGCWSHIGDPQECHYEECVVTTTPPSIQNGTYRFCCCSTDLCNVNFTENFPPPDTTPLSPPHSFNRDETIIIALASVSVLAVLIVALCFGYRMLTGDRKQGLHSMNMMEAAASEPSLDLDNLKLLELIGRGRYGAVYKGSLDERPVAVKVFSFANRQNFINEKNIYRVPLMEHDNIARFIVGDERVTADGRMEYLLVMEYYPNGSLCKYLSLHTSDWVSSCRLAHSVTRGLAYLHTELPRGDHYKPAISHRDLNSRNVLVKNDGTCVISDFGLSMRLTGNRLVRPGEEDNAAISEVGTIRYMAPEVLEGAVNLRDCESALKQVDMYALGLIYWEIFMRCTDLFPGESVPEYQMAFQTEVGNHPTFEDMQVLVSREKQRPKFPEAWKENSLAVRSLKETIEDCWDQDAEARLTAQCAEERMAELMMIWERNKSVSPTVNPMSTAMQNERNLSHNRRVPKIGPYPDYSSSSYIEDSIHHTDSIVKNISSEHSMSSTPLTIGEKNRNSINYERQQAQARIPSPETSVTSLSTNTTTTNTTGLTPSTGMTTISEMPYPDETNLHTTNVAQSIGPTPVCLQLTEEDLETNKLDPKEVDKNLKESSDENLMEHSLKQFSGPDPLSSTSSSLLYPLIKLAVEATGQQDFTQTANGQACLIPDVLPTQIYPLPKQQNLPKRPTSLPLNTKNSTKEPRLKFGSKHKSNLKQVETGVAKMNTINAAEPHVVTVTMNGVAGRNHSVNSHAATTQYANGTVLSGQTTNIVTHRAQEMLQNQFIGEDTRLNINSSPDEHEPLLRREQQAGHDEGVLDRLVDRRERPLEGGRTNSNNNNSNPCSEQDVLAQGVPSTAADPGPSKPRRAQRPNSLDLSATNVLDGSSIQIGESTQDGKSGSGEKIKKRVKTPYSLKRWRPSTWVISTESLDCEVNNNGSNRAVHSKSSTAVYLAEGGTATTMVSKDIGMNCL

[2] = biological target: T2, MAP/microtubule affinity-regulating kinase 4 (Homo sapiens) (UniProt Q96L34); assay: Selectivity interaction (Kinase panel (DSF assay)) EUB0001559a MARK4
T2 sequence (whole entry): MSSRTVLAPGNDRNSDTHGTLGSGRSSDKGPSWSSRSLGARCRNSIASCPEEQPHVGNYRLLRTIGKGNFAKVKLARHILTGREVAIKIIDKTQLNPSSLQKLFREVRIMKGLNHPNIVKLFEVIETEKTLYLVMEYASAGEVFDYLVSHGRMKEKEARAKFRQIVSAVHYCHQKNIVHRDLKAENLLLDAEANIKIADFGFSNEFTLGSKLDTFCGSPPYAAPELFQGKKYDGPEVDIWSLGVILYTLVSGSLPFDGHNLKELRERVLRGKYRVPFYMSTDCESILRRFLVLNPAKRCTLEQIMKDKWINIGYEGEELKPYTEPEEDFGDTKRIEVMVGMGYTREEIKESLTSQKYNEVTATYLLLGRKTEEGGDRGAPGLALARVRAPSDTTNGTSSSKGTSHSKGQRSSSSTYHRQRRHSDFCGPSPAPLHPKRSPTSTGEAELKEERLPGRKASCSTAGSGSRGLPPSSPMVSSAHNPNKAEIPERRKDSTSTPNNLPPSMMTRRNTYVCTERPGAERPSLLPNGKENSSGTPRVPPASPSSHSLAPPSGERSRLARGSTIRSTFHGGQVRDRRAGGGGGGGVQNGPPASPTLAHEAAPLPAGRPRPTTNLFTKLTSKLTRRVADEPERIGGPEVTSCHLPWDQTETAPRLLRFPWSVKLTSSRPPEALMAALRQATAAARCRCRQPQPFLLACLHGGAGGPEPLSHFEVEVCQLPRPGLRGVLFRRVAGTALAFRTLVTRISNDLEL

[3] = biological target: T3, Inhibitor of nuclear factor kappa-B kinase subunit alpha (Homo sapiens) (UniProt O15111); assay: Selectivity interaction (ActivX KiNativ screen (kinase selectivity in THP-1 cell lysates)) EUB0000639a CHUK; type: subcellular; details: lysate
T3 sequence (whole entry): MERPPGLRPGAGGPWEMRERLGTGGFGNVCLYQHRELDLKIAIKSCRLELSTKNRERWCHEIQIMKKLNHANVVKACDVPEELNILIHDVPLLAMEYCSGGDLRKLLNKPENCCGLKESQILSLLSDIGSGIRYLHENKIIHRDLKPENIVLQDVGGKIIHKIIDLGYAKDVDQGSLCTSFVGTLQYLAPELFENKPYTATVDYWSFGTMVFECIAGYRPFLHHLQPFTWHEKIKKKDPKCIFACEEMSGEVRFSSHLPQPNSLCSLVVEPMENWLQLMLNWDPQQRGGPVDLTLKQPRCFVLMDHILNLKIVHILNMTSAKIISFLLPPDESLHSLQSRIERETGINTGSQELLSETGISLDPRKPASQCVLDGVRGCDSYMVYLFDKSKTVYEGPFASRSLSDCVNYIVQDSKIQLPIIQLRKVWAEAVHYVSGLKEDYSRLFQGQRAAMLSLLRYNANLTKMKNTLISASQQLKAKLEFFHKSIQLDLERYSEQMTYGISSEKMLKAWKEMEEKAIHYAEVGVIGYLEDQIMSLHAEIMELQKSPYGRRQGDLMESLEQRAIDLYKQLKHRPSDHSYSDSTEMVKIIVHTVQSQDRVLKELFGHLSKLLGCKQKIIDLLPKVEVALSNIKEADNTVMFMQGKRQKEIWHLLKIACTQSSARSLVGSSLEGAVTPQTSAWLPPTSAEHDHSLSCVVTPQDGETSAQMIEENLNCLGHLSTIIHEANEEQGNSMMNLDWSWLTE

[4] = test system: Hepatocyte growth factor receptor (Homo sapiens), P08581 [M1250T]; assay: Selectivity interaction (KinomeScan (DiscoverX)) EUB0000618a MET; details: at 10 µM
[5] = biological target: Tyrosine-protein kinase receptor Tie-1 (Homo sapiens) (UniProt P35590); assay: Selectivity interaction (KinomeScan (DiscoverX)) EUB0000655a TIE1; details: at 10 µM
[6] = biological target: DNA (cytosine-5)-methyltransferase 3A (Homo sapiens) (UniProt Q9Y6K1); assay: Selectivity interaction (Methyltransferase screen (radiometric assays, panel of 8 PRMTs, 21 protein lysine methyltransferases, 3 DNA methyltransferases, and one RNA methyltransferase)) EUB0000271b DNMT3A
Sequence of DNA (cytosine-5)-methyltransferase 3A (Homo sapiens) (Q9Y6K1 whole entry, looked up): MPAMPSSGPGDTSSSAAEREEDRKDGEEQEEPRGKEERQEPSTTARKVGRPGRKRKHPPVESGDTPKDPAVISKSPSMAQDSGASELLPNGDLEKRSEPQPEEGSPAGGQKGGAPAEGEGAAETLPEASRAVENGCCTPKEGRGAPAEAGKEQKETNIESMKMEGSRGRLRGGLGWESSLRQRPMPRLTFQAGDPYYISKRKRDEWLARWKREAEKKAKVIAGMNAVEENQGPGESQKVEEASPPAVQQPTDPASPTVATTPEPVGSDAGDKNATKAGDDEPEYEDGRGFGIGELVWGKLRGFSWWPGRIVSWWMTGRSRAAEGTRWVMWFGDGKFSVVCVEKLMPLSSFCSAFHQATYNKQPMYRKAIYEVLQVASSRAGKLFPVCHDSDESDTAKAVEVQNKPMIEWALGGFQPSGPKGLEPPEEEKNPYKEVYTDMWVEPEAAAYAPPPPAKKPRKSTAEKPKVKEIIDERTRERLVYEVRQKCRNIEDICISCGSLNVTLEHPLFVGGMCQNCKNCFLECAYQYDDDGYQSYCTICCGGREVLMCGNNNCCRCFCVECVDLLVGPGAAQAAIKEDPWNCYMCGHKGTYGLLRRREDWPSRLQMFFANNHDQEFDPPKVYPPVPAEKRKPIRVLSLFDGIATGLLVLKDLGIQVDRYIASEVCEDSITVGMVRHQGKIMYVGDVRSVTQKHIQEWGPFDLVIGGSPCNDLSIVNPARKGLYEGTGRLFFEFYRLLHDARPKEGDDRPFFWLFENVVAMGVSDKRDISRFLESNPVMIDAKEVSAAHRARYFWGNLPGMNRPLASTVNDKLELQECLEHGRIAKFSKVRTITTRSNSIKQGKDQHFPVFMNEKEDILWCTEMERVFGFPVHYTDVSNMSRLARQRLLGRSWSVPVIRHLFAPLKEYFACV

Sequence of Hepatocyte growth factor receptor (Homo sapiens), P08581 [M1250T] (P08581 whole entry M1250T): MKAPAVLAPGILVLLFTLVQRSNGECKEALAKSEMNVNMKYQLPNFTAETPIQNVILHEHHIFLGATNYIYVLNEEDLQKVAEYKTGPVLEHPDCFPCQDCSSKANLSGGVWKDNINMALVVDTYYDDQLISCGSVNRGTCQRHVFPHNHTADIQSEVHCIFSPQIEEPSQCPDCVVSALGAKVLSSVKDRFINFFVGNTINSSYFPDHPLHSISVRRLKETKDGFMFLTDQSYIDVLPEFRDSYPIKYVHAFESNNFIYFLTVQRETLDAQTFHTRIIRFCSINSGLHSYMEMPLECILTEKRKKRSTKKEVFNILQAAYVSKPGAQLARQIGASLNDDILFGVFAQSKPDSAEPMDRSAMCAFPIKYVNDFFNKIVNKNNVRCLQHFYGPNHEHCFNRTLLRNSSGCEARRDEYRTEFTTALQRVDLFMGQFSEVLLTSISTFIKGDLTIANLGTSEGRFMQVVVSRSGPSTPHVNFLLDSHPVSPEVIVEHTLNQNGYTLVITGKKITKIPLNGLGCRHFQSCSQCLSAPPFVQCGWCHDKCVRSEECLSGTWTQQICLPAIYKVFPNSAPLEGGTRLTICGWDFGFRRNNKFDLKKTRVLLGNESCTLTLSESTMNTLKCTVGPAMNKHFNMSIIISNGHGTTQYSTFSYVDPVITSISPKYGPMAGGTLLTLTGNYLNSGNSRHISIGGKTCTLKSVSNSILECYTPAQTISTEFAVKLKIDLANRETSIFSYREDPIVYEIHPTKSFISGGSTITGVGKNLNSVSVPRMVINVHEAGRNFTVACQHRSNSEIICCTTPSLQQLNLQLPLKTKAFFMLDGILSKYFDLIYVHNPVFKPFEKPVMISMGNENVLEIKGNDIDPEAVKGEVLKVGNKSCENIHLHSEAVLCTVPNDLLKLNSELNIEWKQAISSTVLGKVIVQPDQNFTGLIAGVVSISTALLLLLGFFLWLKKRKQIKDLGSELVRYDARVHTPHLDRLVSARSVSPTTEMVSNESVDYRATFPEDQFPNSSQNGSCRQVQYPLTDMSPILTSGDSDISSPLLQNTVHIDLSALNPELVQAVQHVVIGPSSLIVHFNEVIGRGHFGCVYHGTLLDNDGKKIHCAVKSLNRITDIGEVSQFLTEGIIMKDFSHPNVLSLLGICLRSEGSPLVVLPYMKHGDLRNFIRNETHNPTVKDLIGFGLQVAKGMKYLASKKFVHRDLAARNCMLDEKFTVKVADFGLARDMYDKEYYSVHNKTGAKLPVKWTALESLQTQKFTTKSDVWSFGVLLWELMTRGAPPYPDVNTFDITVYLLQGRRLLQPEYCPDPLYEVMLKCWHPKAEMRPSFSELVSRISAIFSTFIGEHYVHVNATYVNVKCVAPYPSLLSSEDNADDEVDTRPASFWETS
Sequence of Tyrosine-protein kinase receptor Tie-1 (Homo sapiens) (P35590 whole entry): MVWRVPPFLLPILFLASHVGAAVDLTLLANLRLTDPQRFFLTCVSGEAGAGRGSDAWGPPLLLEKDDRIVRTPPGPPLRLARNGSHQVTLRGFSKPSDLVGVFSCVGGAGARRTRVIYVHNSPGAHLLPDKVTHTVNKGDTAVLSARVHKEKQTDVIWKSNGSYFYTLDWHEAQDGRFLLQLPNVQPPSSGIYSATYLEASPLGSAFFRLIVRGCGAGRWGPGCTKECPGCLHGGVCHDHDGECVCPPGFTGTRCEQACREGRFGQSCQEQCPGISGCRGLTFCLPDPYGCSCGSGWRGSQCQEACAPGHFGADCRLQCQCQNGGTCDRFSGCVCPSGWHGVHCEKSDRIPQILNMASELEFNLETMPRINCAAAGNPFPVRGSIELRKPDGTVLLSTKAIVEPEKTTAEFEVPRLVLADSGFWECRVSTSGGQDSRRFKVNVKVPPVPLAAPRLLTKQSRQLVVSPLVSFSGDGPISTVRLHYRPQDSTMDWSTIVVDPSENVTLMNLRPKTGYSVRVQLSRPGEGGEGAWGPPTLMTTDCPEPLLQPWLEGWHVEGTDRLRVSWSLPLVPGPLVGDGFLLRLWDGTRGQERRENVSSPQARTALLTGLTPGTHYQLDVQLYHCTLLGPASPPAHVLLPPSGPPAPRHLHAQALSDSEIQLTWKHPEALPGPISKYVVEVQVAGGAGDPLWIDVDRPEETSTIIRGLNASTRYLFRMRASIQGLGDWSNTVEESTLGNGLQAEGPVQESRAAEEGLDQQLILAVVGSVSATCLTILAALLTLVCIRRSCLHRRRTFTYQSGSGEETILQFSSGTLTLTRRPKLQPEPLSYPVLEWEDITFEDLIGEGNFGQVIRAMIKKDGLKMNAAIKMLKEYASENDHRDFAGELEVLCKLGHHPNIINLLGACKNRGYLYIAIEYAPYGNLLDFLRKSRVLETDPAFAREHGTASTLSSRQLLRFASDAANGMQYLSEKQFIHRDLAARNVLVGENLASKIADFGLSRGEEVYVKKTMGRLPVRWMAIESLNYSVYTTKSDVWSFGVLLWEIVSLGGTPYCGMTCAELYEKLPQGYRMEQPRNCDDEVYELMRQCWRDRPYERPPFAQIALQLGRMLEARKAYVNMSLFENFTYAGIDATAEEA

**Q.** For O=C(NOC[C@H](O)CO)c1ccc(F)c(F)c1Nc1ccc(I)cc1F, which % of control [1] is on record?
**A.** 81%

**Q.** For CN(C(=O)c1cnn2cccnc12)c1cc2c(cc1N1CCOCC1)C(=O)N(C[C@@H](F)C(C)(C)O)C2, which dTM [2] is on record?
**A.** 0.9 K

**Q.** How did the % of inhibition ([3]; at 0.01 µM) turn out when CC[C@@H]1[C@H](F)C(=O)N[C@@H]1COc1nccc2cc(C(N)=O)c(OC)cc12 [ZIMLOVISERTIB] was run?
**A.** 1.5%

**Q.** And the % of inhibition ([3]; at 0.04 µM)?
**A.** -2.5%

**Q.** What about the % of inhibition ([3]; at 0.2 µM) of the same compound?
**A.** 7.8%

**Q.** And the % of inhibition ([3]; at 1 µM)?
**A.** 6.7%

**Q.** What about the % of inhibition ([3]; at 5 µM) of the same compound?
**A.** -16.4%

**Q.** With O[C@H]1CC[C@H](Nc2ncc3nc(Nc4c(F)cc(F)cc4F)n([C@H]4CCOC4)c3n2)CC1 as the compound, how does the % of control [4] read?
**A.** 100%

**Q.** For CN(C)CCOc1ccc(-c2nc(-c3ccncc3)c(-c3ccc4c(c3)CC/C4=N\O)[nH]2)cc1, which % of control [5] is on record?
**A.** 44%

**Q.** Cc1cc(C)cc([C@@H]2c3cc(C)ccc3NC(=O)CN2C(=O)c2ccc(Br)s2)c1 was tested. Which % of activity ([6]; at 1 µM) did it give?
**A.** 99%

**Q.** What about the % of activity ([6]; at 10 µM) of the same compound?
**A.** 99%
